# Assay: recombinant barcode read abundance after kanamycin selection (control-corrected) (log10(CPM+1)); higher = more efficient recombination; sequences stand for … in AGTGCAGAGAAAATCGGCCAGTTTTCTCTGCCTGCAGTCCGCATGCCGT…ATTTATGCAGCGGACTGCCTTTCTCCCAAAGTGATAAACCGGACAGTATCATGGACCGGTTTTCCCGGTAATCCGTATTTGCAAGGTTGGTTTCACT; site = the 11-nt target
# Protocol: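 Same pooled E. coli target screen (IS621 bridge recombinase, kanamycin selection, control-corrected CPM, mean of 2 biological replicates). Here the two core-binding nucleotides of the LTG and RTG of the bridge RNA target-binding loop are mutated. Target and donor CT cores are held constant, and the other 9 guide positions match the target. The target is read from the library oligo sequence. Molecule = full bridge RNA written as DNA: nt 1-80 from the library oligo, rest WT scaffold.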
row,Sequence,recombinant barcode read abundance (log10)
1,"ATGTCCCGATGGGTTCTAACCTGTTGCTCAG [ATGTCCCCTGA_LTGcore_GA_RTGcore_CT] (site ATGTCCCCTGA) (LTG core: GA, RTG core: CT)",0.647
2,"ATGTCCCGGTGGGTTCTAACCTGTTGCTCAG [ATGTCCCCTGA_LTGcore_GG_RTGcore_CT] (site ATGTCCCCTGA) (LTG core: GG, RTG core: CT)",0.294
3,"ATGTCCCGTTGGGTTCTAACCTGTTGCTCAC [ATGTCCCCTGA_LTGcore_GT_RTGcore_GT] (site ATGTCCCCTGA) (LTG core: GT, RTG core: GT)",0.0823
4,"ATGTCCCTCTGGGTTCTAACCTGTTGCTCAG [ATGTCCCCTGA_LTGcore_TC_RTGcore_CT] (site ATGTCCCCTGA) (LTG core: TC, RTG core: CT)",0.209
5,"ATGTCCCTGTGGGTTCTAACCTGTTGCTCAG [ATGTCCCCTGA_LTGcore_TG_RTGcore_CT] (site ATGTCCCCTGA) (LTG core: TG, RTG core: CT)",0.0616
6,"ATGTCCCTGTGGGTTCTAACCTGTTGCTCCA [ATGTCCCCTGA_LTGcore_TG_RTGcore_TG] (site ATGTCCCCTGA) (LTG core: TG, RTG core: TG)",0.0547
7,"CATATTAACTGGGTTCTAACCTGTTGCCTAG [CATATTACTAG_LTGcore_AC_RTGcore_CT] (site CATATTACTAG) (LTG core: AC, RTG core: CT)",0.441
8,"CATATTACCTGGGTTCTAACCTGTTGCCTAG [CATATTACTAG_LTGcore_CC_RTGcore_CT] (site CATATTACTAG) (LTG core: CC, RTG core: CT)",0.0888
9,"CATATTACTTGGGTTCTAACCTGTTGCCTCC [CATATTACTAG_LTGcore_CT_RTGcore_GG] (site CATATTACTAG) (LTG core: CT, RTG core: GG)",0.2
10,"CATATTACTTGGGTTCTAACCTGTTGCCTTA [CATATTACTAG_LTGcore_CT_RTGcore_TA] (site CATATTACTAG) (LTG core: CT, RTG core: TA)",0.12
11,"CATATTACTTGGGTTCTAACCTGTTGCCTTG [CATATTACTAG_LTGcore_CT_RTGcore_CA] (site CATATTACTAG) (LTG core: CT, RTG core: CA)",0.214
12,"CATATTAGATGGGTTCTAACCTGTTGCCTAG [CATATTACTAG_LTGcore_GA_RTGcore_CT] (site CATATTACTAG) (LTG core: GA, RTG core: CT)",0.239
13,"CGAGCCCAATGGGTTCTAACCTGTTGCTGTT [CGAGCCCCTCA_LTGcore_AA_RTGcore_AA] (site CGAGCCCCTCA) (LTG core: AA, RTG core: AA)",0.0507
14,"CGAGCCCCTTGGGTTCTAACCTGTTGCTGAT [CGAGCCCCTCA_LTGcore_CT_RTGcore_AT] (site CGAGCCCCTCA) (LTG core: CT, RTG core: AT)",0.29
15,"CGAGCCCCTTGGGTTCTAACCTGTTGCTGCT [CGAGCCCCTCA_LTGcore_CT_RTGcore_AG] (site CGAGCCCCTCA) (LTG core: CT, RTG core: AG)",0.203
16,"CGAGCCCCTTGGGTTCTAACCTGTTGCTGGT [CGAGCCCCTCA_LTGcore_CT_RTGcore_AC] (site CGAGCCCCTCA) (LTG core: CT, RTG core: AC)",1.21
17,"CGAGCCCTTTGGGTTCTAACCTGTTGCTGAG [CGAGCCCCTCA_LTGcore_TT_RTGcore_CT] (site CGAGCCCCTCA) (LTG core: TT, RTG core: CT)",0.048
18,"CGCGCCCAGTGGGTTCTAACCTGTTGCGGCT [CGCGCCCCTCC_LTGcore_AG_RTGcore_AG] (site CGCGCCCCTCC) (LTG core: AG, RTG core: AG)",0.0334
19,"CGCGCCCATTGGGTTCTAACCTGTTGCGGAG [CGCGCCCCTCC_LTGcore_AT_RTGcore_CT] (site CGCGCCCCTCC) (LTG core: AT, RTG core: CT)",0.0641
20,"CGCGCCCCTTGGGTTCTAACCTGTTGCGGAG [CGCGCCCCTCC_LTGcore_CT_RTGcore_CT] (site CGCGCCCCTCC) (LTG core: CT, RTG core: CT)",0.131
21,"CGCGCCCCTTGGGTTCTAACCTGTTGCGGCA [CGCGCCCCTCC_LTGcore_CT_RTGcore_TG] (site CGCGCCCCTCC) (LTG core: CT, RTG core: TG)",0
22,"CGCGCCCCTTGGGTTCTAACCTGTTGCGGGC [CGCGCCCCTCC_LTGcore_CT_RTGcore_GC] (site CGCGCCCCTCC) (LTG core: CT, RTG core: GC)",0.592

row,Sequence,recombinant barcode read abundance (log10)
1,"CGCGCCCCTTGGGTTCTAACCTGTTGCGGTA [CGCGCCCCTCC_LTGcore_CT_RTGcore_TA] (site CGCGCCCCTCC) (LTG core: CT, RTG core: TA)",0.602
2,"CGCGCCCGATGGGTTCTAACCTGTTGCGGTC [CGCGCCCCTCC_LTGcore_GA_RTGcore_GA] (site CGCGCCCCTCC) (LTG core: GA, RTG core: GA)",0.158
3,"CGCGCCCGGTGGGTTCTAACCTGTTGCGGAG [CGCGCCCCTCC_LTGcore_GG_RTGcore_CT] (site CGCGCCCCTCC) (LTG core: GG, RTG core: CT)",0.557
4,"CGCGCCCTATGGGTTCTAACCTGTTGCGGAG [CGCGCCCCTCC_LTGcore_TA_RTGcore_CT] (site CGCGCCCCTCC) (LTG core: TA, RTG core: CT)",0.334
5,"CGCGCCCTTTGGGTTCTAACCTGTTGCGGAG [CGCGCCCCTCC_LTGcore_TT_RTGcore_CT] (site CGCGCCCCTCC) (LTG core: TT, RTG core: CT)",0.127
6,"CGGTCCCACTGGGTTCTAACCTGTTGCCAGT [CGGTCCCCTTG_LTGcore_AC_RTGcore_AC] (site CGGTCCCCTTG) (LTG core: AC, RTG core: AC)",0.19
7,"CGGTCCCAGTGGGTTCTAACCTGTTGCCAAG [CGGTCCCCTTG_LTGcore_AG_RTGcore_CT] (site CGGTCCCCTTG) (LTG core: AG, RTG core: CT)",0.0476
8,"CGGTCCCATTGGGTTCTAACCTGTTGCCAAG [CGGTCCCCTTG_LTGcore_AT_RTGcore_CT] (site CGGTCCCCTTG) (LTG core: AT, RTG core: CT)",1.07
9,"CGGTCCCCCTGGGTTCTAACCTGTTGCCAAG [CGGTCCCCTTG_LTGcore_CC_RTGcore_CT] (site CGGTCCCCTTG) (LTG core: CC, RTG core: CT)",0.189
10,"CGGTCCCCTTGGGTTCTAACCTGTTGCCATG [CGGTCCCCTTG_LTGcore_CT_RTGcore_CA] (site CGGTCCCCTTG) (LTG core: CT, RTG core: CA)",1.6
11,"CGGTCCCGTTGGGTTCTAACCTGTTGCCAAC [CGGTCCCCTTG_LTGcore_GT_RTGcore_GT] (site CGGTCCCCTTG) (LTG core: GT, RTG core: GT)",0.229
12,"CGGTCCCTCTGGGTTCTAACCTGTTGCCAAG [CGGTCCCCTTG_LTGcore_TC_RTGcore_CT] (site CGGTCCCCTTG) (LTG core: TC, RTG core: CT)",0.355
13,"CGGTCCCTCTGGGTTCTAACCTGTTGCCAGA [CGGTCCCCTTG_LTGcore_TC_RTGcore_TC] (site CGGTCCCCTTG) (LTG core: TC, RTG core: TC)",0.174
14,"CGGTCCCTGTGGGTTCTAACCTGTTGCCACA [CGGTCCCCTTG_LTGcore_TG_RTGcore_TG] (site CGGTCCCCTTG) (LTG core: TG, RTG core: TG)",0.175
15,"CGGTCCCTTTGGGTTCTAACCTGTTGCCAAG [CGGTCCCCTTG_LTGcore_TT_RTGcore_CT] (site CGGTCCCCTTG) (LTG core: TT, RTG core: CT)",0.0132
16,"GAGCCCACTTGGGTTCTAACCTGTTGCCTAT [GAGCCCACTAG_LTGcore_CT_RTGcore_AT] (site GAGCCCACTAG) (LTG core: CT, RTG core: AT)",0.41
17,"GAGCCCAGCTGGGTTCTAACCTGTTGCCTGC [GAGCCCACTAG_LTGcore_GC_RTGcore_GC] (site GAGCCCACTAG) (LTG core: GC, RTG core: GC)",0.0674
18,"GAGCCCAGGTGGGTTCTAACCTGTTGCCTAG [GAGCCCACTAG_LTGcore_GG_RTGcore_CT] (site GAGCCCACTAG) (LTG core: GG, RTG core: CT)",0.181
19,"GAGCCCAGTTGGGTTCTAACCTGTTGCCTAG [GAGCCCACTAG_LTGcore_GT_RTGcore_CT] (site GAGCCCACTAG) (LTG core: GT, RTG core: CT)",0.0941
20,"GAGCCCATATGGGTTCTAACCTGTTGCCTTA [GAGCCCACTAG_LTGcore_TA_RTGcore_TA] (site GAGCCCACTAG) (LTG core: TA, RTG core: TA)",0.338
21,"GAGCCCATCTGGGTTCTAACCTGTTGCCTAG [GAGCCCACTAG_LTGcore_TC_RTGcore_CT] (site GAGCCCACTAG) (LTG core: TC, RTG core: CT)",0.102
22,"GAGCCCATTTGGGTTCTAACCTGTTGCCTAA [GAGCCCACTAG_LTGcore_TT_RTGcore_TT] (site GAGCCCACTAG) (LTG core: TT, RTG core: TT)",0.178
